The source of these data is US20230248834A1, “DEGRADATION OF (EGFR) BY CONJUGATION OF EGFR INHIBITORS WITH E3 LIGASE LIGAND AND METHODS OF USE” (BEIGENE, LTD., priority 2020, published 2023).

For orientation: Dmax means the greatest extent of degradation seen.

The target of one assay is T1, EGFR L858R/C797S (Homo sapiens, UniProt P00533, C797S/L858R).
T1 construct: expressed in transfected cells; host or cells: BaF3 LC
As to the kind of experiment: EGFR degradation HTRF assay in BaF3 LC cells. The format is cell-based. The conditions noted are these: BaF3 LC (L858R/C797S), maximum percentage of inhibition (degradation); read-out: BaF3 LC Dmax (%). On the procedure: (§1) BaF3-LTC(L858R/T790M/C797S) cells and BaF3 LC(L858R/C797S) cells are treated with compounds diluted in 0.2% DMSO cell culture medium and incubate for 16 h, 37° C., 5% CO2. the final concentration of compounds in all assay is start with 10 uM, 5-fold dilution, total 8 doses were included.
(§2) After 16 h treatment, add HTRF lysis buffer to each well; seal the plate and incubate 1 hour at room temperature on a plate shaker; Once the cells are lysed, 16 μL of cell lysate are transferred to a PE 384-well HTRF detection plate; 4 μL of pre-mixed HTRF antibodies are added to each well; Cover the plate with a plate sealer, spin 1000 rpm for 1 min, Incubate overnight at room temperature; Read on BMG PheraStar with HTRF protocol (337 nm-665 nm-620 nm).
(§3) The inhibition (degradation) percentage of the compound was calculated by the following equation: Inhibition percentage of Compound=100−100×(Signal−low control)/(High control−low control), wherein signal=each test compound group
(§4) High control=Cell group with added DMSO and without compound, indicating microplate readings without EGFR degradation;
(§5) Dmax is the maximum percentage of inhibition (degradation).
(§6) The IC50 (DC50) value of a compound can be obtained by fitting the following equation
(§7) Y=Bottom+(TOP−Bottom)/(1+((IC50/X)^hillslope))
(§8) Wherein, X and Y are known values, and IC50, Hillslope, Top and Bottom are the parameters obtained by fitting with software. Y is the inhibition percentage (calculated from the equation), X is the concentration of the compound; IC50 is the concentration of the compound when the 50% inhibition is reached. The smaller the IC50 value is, the stronger the inhibitory ability of the compound is. Vice versa, the higher the IC50 value is, the weaker the inhibitory ability of the compound is; Hillslope represents the slope of the fitted curve, generally around 1*; Bottom represents the minimum value of the curve obtained by data fitting, which is generally 0%±20%; Top represents the maximum value of the curve obtained by data fitting, which is generally 100%±20%. The experimental data were fitted by calculating and analyzing with Dotmatics data analysis software.
Background: TR-FRET usually uses a lanthanide donor and a delayed reading to cut background.

The next assay deals with T2, EGFR L858R/T790M/C797S (Homo sapiens, UniProt P00533, C797S/L858R/T790M).
T2 construct: expressed in transfected cells; host or cells: BaF3-LTC
T2 sequence (P00533 25-1210 T790M/C797S/L858R): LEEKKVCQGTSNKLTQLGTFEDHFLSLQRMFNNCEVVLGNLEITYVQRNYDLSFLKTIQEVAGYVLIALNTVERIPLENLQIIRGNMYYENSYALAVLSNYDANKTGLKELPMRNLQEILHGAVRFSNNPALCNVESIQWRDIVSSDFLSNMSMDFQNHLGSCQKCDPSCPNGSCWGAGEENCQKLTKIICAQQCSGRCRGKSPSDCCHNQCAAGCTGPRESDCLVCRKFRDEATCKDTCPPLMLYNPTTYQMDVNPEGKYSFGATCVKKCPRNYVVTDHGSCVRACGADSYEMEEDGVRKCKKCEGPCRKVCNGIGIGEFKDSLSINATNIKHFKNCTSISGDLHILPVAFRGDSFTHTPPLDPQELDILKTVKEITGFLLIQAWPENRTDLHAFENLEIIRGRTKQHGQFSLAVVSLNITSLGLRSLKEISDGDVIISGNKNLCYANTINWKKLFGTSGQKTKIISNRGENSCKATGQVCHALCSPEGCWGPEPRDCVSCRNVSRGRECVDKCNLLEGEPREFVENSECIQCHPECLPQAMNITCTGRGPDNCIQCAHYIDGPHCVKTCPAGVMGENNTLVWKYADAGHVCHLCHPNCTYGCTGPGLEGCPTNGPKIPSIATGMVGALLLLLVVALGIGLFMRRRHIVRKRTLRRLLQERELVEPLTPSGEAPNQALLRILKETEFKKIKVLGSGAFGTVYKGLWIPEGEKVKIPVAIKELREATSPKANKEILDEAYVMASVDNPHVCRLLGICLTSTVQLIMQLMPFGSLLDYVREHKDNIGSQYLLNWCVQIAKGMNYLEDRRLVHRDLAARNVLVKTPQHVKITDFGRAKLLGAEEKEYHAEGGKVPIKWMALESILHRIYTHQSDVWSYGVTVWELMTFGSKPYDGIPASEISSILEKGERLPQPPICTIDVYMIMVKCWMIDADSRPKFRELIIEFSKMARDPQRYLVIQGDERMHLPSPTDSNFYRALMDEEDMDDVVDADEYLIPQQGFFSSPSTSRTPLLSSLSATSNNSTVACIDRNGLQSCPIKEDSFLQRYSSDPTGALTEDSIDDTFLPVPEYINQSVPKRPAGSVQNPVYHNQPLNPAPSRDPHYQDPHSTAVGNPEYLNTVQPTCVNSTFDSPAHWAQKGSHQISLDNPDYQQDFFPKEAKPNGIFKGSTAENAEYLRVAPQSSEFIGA
As to the kind of experiment: EGFR degradation HTRF assay in BaF3-LTC cells. The class given is cell-based. As to conditions: BaF3-LTC (L858R/T790M/C797S), maximum percentage of inhibition (degradation); read-out: BaF3-LTC Dmax (%). The method, then:
as §1, §2, §3, §4, §5, §6, §7, §8

T1 sequence (P00533 25-1210 C797S/L858R): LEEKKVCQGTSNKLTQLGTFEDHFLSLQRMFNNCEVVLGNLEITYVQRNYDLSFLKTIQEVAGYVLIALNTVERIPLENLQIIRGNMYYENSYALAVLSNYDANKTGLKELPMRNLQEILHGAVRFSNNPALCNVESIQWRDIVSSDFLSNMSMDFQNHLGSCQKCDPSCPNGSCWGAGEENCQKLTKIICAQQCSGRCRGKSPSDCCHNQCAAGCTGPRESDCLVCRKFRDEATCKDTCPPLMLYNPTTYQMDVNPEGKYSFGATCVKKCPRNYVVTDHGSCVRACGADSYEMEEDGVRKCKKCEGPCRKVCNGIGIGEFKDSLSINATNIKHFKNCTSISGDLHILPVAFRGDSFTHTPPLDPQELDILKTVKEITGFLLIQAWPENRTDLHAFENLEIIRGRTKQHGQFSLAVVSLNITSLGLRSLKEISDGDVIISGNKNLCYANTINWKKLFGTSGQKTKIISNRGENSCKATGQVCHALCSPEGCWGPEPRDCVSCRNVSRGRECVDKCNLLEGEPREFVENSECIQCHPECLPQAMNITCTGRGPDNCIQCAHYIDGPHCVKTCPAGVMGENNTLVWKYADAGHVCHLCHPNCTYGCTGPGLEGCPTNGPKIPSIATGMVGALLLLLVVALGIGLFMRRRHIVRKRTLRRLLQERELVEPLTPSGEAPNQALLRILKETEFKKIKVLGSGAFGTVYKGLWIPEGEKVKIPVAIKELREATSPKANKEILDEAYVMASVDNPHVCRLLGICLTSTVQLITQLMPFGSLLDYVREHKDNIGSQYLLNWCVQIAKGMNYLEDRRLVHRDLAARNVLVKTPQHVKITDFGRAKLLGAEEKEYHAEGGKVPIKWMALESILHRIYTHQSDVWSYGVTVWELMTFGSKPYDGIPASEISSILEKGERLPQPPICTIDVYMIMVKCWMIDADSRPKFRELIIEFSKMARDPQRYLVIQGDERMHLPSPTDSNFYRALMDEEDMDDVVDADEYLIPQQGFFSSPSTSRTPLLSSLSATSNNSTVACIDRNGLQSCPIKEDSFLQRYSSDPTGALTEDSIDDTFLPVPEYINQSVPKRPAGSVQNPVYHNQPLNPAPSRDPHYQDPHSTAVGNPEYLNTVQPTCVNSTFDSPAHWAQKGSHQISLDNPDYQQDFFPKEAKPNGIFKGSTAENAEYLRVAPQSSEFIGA

Regarding `CCc1cc(Nc2ncc(Br)c(Nc3ccc4c(=O)n(C)ncc4c3P(C)(C)=O)n2)c(OC)cc1N1CCC(N2CCN(CCc3cccc4c3C3(CC3)C(=O)N4C3CCC(=O)NC3=O)CC2)CC1` (stereo not drawn) [Example 756, 3-(4′-(2-(4-(1-(4-((5-bromo-4-((5-(dimethylphosphoryl)-2-methyl-1-oxo-1,2-dihydrophthalazin-6-yl)amino)pyrimidin-2-yl)amino)-2-ethyl-5-methoxyphenyl)piperidin-4-yl)piperazin-1-yl)ethyl)-2′-oxospiro[cyclopropane-1,3′-indolin]-1′-yl)piperidine-2,6-dione], the Dmax on EGFR L858R/C797S amounted to 94.5%; at EGFR L858R/T790M/C797S it was 97%.

Regarding `CCOc1cc(N2CCC(N3CCN(C(=O)[C@@H]4CCN(c5cc(F)c([C@H]6CCC(=O)NC6=O)c(F)c5)C4)CC3)CC2)c(CC)cc1Nc1ncc(Br)c(Nc2ccc3nc(C)c(F)cc3c2P(C)(C)=O)n1` [Example 577, (R)-3-(4-((R)-3-(4-(1-(4-((5-bromo-4-((5-(dimethylphosphoryl)-3-fluoro-2-methylquinolin-6-yl)amino)pyrimidin-2-yl)amino)-5-ethoxy-2-ethylphenyl)piperidin-4-yl)piperazine-1-carbonyl)pyrrolidin-1-yl)-2,6-difluorophenyl)piperidine-2,6-dione], the Dmax on EGFR L858R/C797S was 89.1%; at EGFR L858R/T790M/C797S, 88.6%.

Turning to `CCOc1cc(N2CCC(N3CCN(CCc4c(F)ccc5c4n(C)c(=O)n5C4CCC(=O)NC4=O)CC3)CC2)c(CC)cc1Nc1ncc(Br)c(Nc2ccc3nc(CC)ccc3c2P(C)(C)=O)n1` (stereo not drawn) [Example 503, 3-(4-(2-(4-(1-(4-((5-bromo-4-((5-(dimethylphosphoryl)-2-ethylquinolin-6-yl)amino)pyrimidin-2-yl)amino)-5-ethoxy-2-ethylphenyl)piperidin-4-yl)piperazin-1-yl)ethyl)-5-fluoro-3-methyl-2-oxo-2,3-dihydro-1H-benzo[d]imidazol-1-yl)piperidine-2,6-dione], the figures for the greatest degradation seen (Dmax) at EGFR L858R/C797S and on EGFR L858R/T790M/C797S were 88.9% and 90.2%, respectively.

Turning to `CCOc1cc(N2CCC(N3CCN(CCc4ccc(F)c5c4oc(=O)n5C4CCC(=O)NC4=O)CC3)CC2)c(CC)cc1Nc1ncc(Br)c(Nc2ccc3nc(CC)ccc3c2P(C)(C)=O)n1` (stereo not drawn) [Example 505, 3-(7-(2-(4-(1-(4-((5-bromo-4-((5-(dimethylphosphoryl)-2-ethylquinolin-6-yl)amino)pyrimidin-2-yl)amino)-5-ethoxy-2-ethylphenyl)piperidin-4-yl)piperazin-1-yl)ethyl)-4-fluoro-2-oxobenzo[d]oxazol-3(2H)-yl)piperidine-2,6-dione], the Dmax at EGFR L858R/C797S came to 83.2%; on EGFR L858R/T790M/C797S it was 75.1%.

As to `CCOc1cc(N2CCC(N3CCN(C(=O)[C@H]4CN(c5cc(F)c([C@H]6CCC(=O)NC6=O)c(F)c5)CC4(C)C)CC3)CC2)c(CC)cc1Nc1ncc(Br)c(Nc2ccc3nc(C)ccc3c2P(C)(C)=O)n1` [Example 747, (R)-3-(4-((R)-4-(4-(1-(4-((5-bromo-4-((5-(dimethylphosphoryl)-2-methylquinolin-6-yl)amino)pyrimidin-2-yl)amino)-5-ethoxy-2-ethylphenyl)piperidin-4-yl)piperazine-1-carbonyl)-3,3-dimethylpyrrolidin-1-yl)-2,6-difluorophenyl)piperidine-2,6-dione], the greatest degradation seen (Dmax) on EGFR L858R/T790M/C797S amounted to 96.2%.

For `CCOc1cc(N2CCC(N3CCN(CCc4cc(F)c([C@H]5CCC(=O)NC5=O)c(F)c4)CC3)CC2)c(CC)cc1Nc1ncc(Br)c(Nc2ccc3nc(C)ncc3c2P(C)(C)=O)n1` [Example 738, (R)-3-(4-(2-(4-(1-(4-((5-bromo-4-((5-(dimethylphosphoryl)-2-methylquinazolin-6-yl)amino)pyrimidin-2-yl)amino)-5-ethoxy-2-ethylphenyl)piperidin-4-yl)piperazin-1-yl)ethyl)-2,6-difluorophenyl)piperidine-2,6-dione], the Dmax at EGFR L858R/T790M/C797S was 95.7%.

On to `CCOc1cc(N2CCC(N3CCN(CCc4c(F)ccc5c4n(C)c(=O)n5C4CCC(=O)NC4=O)CC3)CC2)c(CC)cc1Nc1ncc(Br)c(Nc2ccc3nc(CC)ncc3c2P(C)(C)=O)n1` (stereo not drawn) [Example 736, 3-(4-(2-(4-(1-(4-((5-bromo-4-((5-(dimethylphosphoryl)-2-ethylquinazolin-6-yl)amino)pyrimidin-2-yl)amino)-5-ethoxy-2-ethylphenyl)piperidin-4-yl)piperazin-1-yl)ethyl)-5-fluoro-3-methyl-2-oxo-2,3-dihydro-1H-benzo[d]imidazol-1-yl)piperidine-2,6-dione], for which, on EGFR L858R/T790M/C797S, the Dmax was determined as 97%.

Consider `COc1cc(N2CCC(N3CCN(C(=O)[C@H]4CN(c5cc(F)c([C@H]6CCC(=O)NC6=O)c(F)c5)CC4(C)C)CC3)CC2)c(C)cc1Nc1ncc(Br)c(Nc2ccc3nc(C)c(F)cc3c2P(C)(C)=O)n1` [Example 729, (R)-3-(4-((R)-4-(4-(1-(4-((5-bromo-4-((5-(dimethylphosphoryl)-3-fluoro-2-methylquinolin-6-yl)amino)pyrimidin-2-yl)amino)-5-methoxy-2-methylphenyl)piperidin-4-yl)piperazine-1-carbonyl)-3,3-dimethylpyrrolidin-1-yl)-2,6-difluorophenyl)piperidine-2,6-dione], for which, at EGFR L858R/T790M/C797S, the Dmax amounted to 97.1%.

For `CCOc1cc(N2CCC(N3CCN(CC4CN(c5cc(F)c([C@H]6CCC(=O)NC6=O)c(F)c5)C4)CC3)CC2)c(CC)cc1Nc1ncc(Br)c(Nc2ccc3nc(CC)ccc3c2P(C)(C)=O)n1` [Example 541, (R)-3-(4-(3-((4-(1-(4-((5-bromo-4-((5-(dimethylphosphoryl)-2-ethylquinolin-6-yl)amino)pyrimidin-2-yl)amino)-5-ethoxy-2-ethylphenyl)piperidin-4-yl)piperazin-1-yl)methyl)azetidin-1-yl)-2,6-difluorophenyl)piperidine-2,6-dione], the Dmax at EGFR L858R/T790M/C797S was determined as 95.6%.

With `CCc1cc(Nc2ncc(Br)c(Nc3ccc4nc(C)ncc4c3P(C)(C)=O)n2)c(OC)cc1N1CCC(N2CCN(CCc3cc(F)c([C@H]4CCC(=O)NC4=O)c(F)c3)CC2)CC1` [Example 739, (R)-3-(4-(2-(4-(1-(4-((5-bromo-4-((5-(dimethylphosphoryl)-2-methylquinazolin-6-yl)amino)pyrimidin-2-yl)amino)-2-ethyl-5-methoxyphenyl)piperidin-4-yl)piperazin-1-yl)ethyl)-2,6-difluorophenyl)piperidine-2,6-dione], at EGFR L858R/T790M/C797S, the Dmax stood at 95.7%.

Take `CCOc1cc(N2CCC(N3CCN(CCc4cc(F)c([C@H]5CCC(=O)NC5=O)c(F)c4)CC3)CC2)c(CC)cc1Nc1ncc(C)c(Nc2cc(F)c3nc(CC)ccc3c2P(C)(C)=O)n1` [Example 733, (R)-3-(4-(2-(4-(1-(4-((4-((5-(dimethylphosphoryl)-2-ethyl-8-fluoroquinolin-6-yl)amino)-5-methylpyrimidin-2-yl)amino)-5-ethoxy-2-ethylphenyl)piperidin-4-yl)piperazin-1-yl)ethyl)-2,6-difluorophenyl)piperidine-2,6-dione]: the Dmax at EGFR L858R/T790M/C797S came to 89.5%.

In the case of `CCc1ccc2c(P(C)(C)=O)c(Nc3nc(Nc4cc(CC)c(N5CCC(N6CCN(CCc7cc(F)c([C@H]8CCC(=O)NC8=O)c(F)c7)CC6)CC5)cc4OC)ncc3Cl)ccc2n1` [Example 744, (R)-3-(4-(2-(4-(1-(4-((5-chloro-4-((5-(dimethylphosphoryl)-2-ethylquinolin-6-yl)amino)pyrimidin-2-yl)amino)-2-ethyl-5-methoxyphenyl)piperidin-4-yl)piperazin-1-yl)ethyl)-2,6-difluorophenyl)piperidine-2,6-dione], the Dmax on EGFR L858R/T790M/C797S amounted to 92.3%.

In the case of `CCc1ncc2c(P(C)(C)=O)c(Nc3nc(Nc4cc(C)c(N5CCC(N6CCN(CCc7cc(F)c([C@H]8CCC(=O)NC8=O)c(F)c7)CC6)CC5)cc4OC)ncc3Br)ccc2n1` [Example 748, (R)-3-(4-(2-(4-(1-(4-((5-bromo-4-((5-(dimethylphosphoryl)-2-ethylquinazolin-6-yl)amino)pyrimidin-2-yl)amino)-5-methoxy-2-methylphenyl)piperidin-4-yl)piperazin-1-yl)ethyl)-2,6-difluorophenyl)piperidine-2,6-dione], the Dmax at EGFR L858R/T790M/C797S was 93.6%.

Consider `CCc1ccc2c(P(C)(C)=O)c(Nc3nc(Nc4cc(CC)c(N5CCC(C6CCN(CCc7cc(F)c([C@H]8CCC(=O)NC8=O)c(F)c7)CC6)CC5)cc4OC)ncc3Br)ccc2n1` [Example 745, (R)-3-(4-(2-(1′-(4-((5-bromo-4-((5-(dimethylphosphoryl)-2-ethylquinolin-6-yl)amino)pyrimidin-2-yl)amino)-2-ethyl-5-methoxyphenyl)-[4,4′-bipiperidin]-1-yl)ethyl)-2,6-difluorophenyl)piperidine-2,6-dione], for which, on EGFR L858R/T790M/C797S, the Dmax came to 88.7%.
